The test deals with MV-4-11 cells. Nature of the test: Gene expression microarray analysis (Affymetrix PrimeView) and GSEA. It counts as cell-based, human. Set-up: RFU PODN (11730768_x_at) / Fold change /veh PODN (11730768_x_at) / RFU LINC00158 (11744669_a_at) / Fold change /veh LINC00158 (11744669_a_at) / RFU DUSP10 (11751237_a_at) / Fold change /veh DUSP10 (11751237_a_at) / RFU ID3 (11757404_x_at) / Fold change /veh ID3 (11757404_x_at) / RFU PLEKHG5 (11737974_s_at) / Fold change /veh PLEKHG5 (11737974_s_at) / RFU LRRC4B (11730491_at) / Fold change /veh LRRC4B (11730491_at) / RFU GIMAP4 (11747438_a_at) / Fold change /veh GIMAP4 (11747438_a_at) / RFU KRT8 (11758183_x_at) / Fold change /veh KRT8 (11758183_x_at) / RFU CNN1 (11734310_a_at) / Fold change /veh CNN1 (11734310_a_at) / RFU VPS37D (11726825_at) / Fold change /veh VPS37D (11726825_at) / RFU C10orf10 (11716522_x_at) / Fold change /veh C10orf10 (11716522_x_at) / RFU KIR2DL2 /// KIR2DL4 /// KIR2DL5A /// KIR2DL5B /// KIR2DS1 /// KIR2DS2 /// KIR2DS3 /// KIR2DS4 /// KIR3DL3 /// KIR3DL3 /// KIR3DS1 (11738374_at) / Fold change /veh KIR2DL2 /// KIR2DL4 /// KIR2DL5A /// KIR2DL5B /// KIR2DS1 /// KIR2DS2 /// KIR2DS3 /// KIR2DS4 /// KIR3DL3 /// KIR3DL3 /// KIR3DS1 (11738374_at) / RFU C1QL1 (11718748_at) / Fold change /veh C1QL1 (11718748_at) / RFU TMPRSS4 (11747572_a_at) / Fold change /veh TMPRSS4 (11747572_a_at) / RFU HAMP (11756126_x_at) / Fold change /veh HAMP (11756126_x_at) / RFU RNFT2 (11725882_a_at) / Fold change /veh RNFT2 (11725882_a_at) / RFU NR4A2 (11747474_a_at) / Fold change /veh NR4A2 (11747474_a_at) / RFU ABCC12 (11746883_a_at) / Fold change /veh ABCC12 (11746883_a_at) / RFU TMEM136 (11760407_x_at) / Fold change /veh TMEM136 (11760407_x_at) / RFU CLDN22 /// WWC2 (11732394_at) / Fold change /veh CLDN22 /// WWC2 (11732394_at) / RFU HLA-DPB1 (11760878_x_at) / Fold change /veh HLA-DPB1 (11760878_x_at) / RFU SPINT1 (11716480_a_at) / Fold change /veh SPINT1 (11716480_a_at) / RFU GAP43 (11754022_s_at) / Fold change /veh GAP43 (11754022_s_at) / RFU A4GNT (11735810_at) / Fold change /veh A4GNT (11735810_at) / RFU PRB3 (11715151_x_at) / Fold change /veh PRB3 (11715151_x_at) / RFU TUBB4B (11761932_at) / Fold change /veh TUBB4B (11761932_at) / RFU CAPN14 (11732068_a_at) / Fold change /veh CAPN14 (11732068_a_at) / RFU TMCC2 (11721928_a_at) / Fold change /veh TMCC2 (11721928_a_at) / RFU IRGQ (11745062_a_at) / Fold change /veh IRGQ (11745062_a_at) / RFU FAM174B (11720279_a_at) / Fold change /veh FAM174B (11720279_a_at) / RFU TMPRSS4 (11748680_a_at) / Fold change /veh TMPRSS4 (11748680_a_at) / RFU FAM212B (11763350_a_at) / Fold change /veh FAM212B (11763350_a_at) / RFU PLEKHG5 (11743358_a_at) / Fold change /veh PLEKHG5 (11743358_a_at) / RFU ZSCAN30 (11745921_a_at) / Fold change /veh ZSCAN30 (11745921_a_at) / RFU CMKLR1 (11741424_a_at) / Fold change /veh CMKLR1 (11741424_a_at) / RFU LOC101060620 /// MAPK8IP1 (11723275_at) / Fold change /veh LOC101060620 /// MAPK8IP1 (11723275_at) / RFU SPTSSB (11747773_x_at) / Fold change /veh SPTSSB (11747773_x_at) / RFU PRSS12 (11739890_at) / Fold change /veh PRSS12 (11739890_at) / RFU BIN1 (11741810_x_at) / Fold change /veh BIN1 (11741810_x_at) / RFU WNT11 (11732464_a_at) / Fold change /veh WNT11 (11732464_a_at) / RFU C10orf10 (11716521_a_at) / Fold change /veh C10orf10 (11716521_a_at) / RFU C5orf56 (11738089_at) / Fold change /veh C5orf56 (11738089_at) / RFU CYB561 (11721691_x_at) / Fold change /veh CYB561 (11721691_x_at) / RFU ANKRD19P (11752326_a_at) / Fold change /veh ANKRD19P (11752326_a_at) / RFU OR2T12 /// OR2T33 /// OR2T8 (11738714_s_at) / Fold change /veh OR2T12 /// OR2T33 /// OR2T8 (11738714_s_at) / RFU VCAN (11748164_a_at) / Fold change /veh VCAN (11748164_a_at) / RFU JSRP1 (11732532_at) / Fold change /veh JSRP1 (11732532_at) / RFU KRTAP10-11 (11738290_x_at) / Fold change /veh KRTAP10-11 (11738290_x_at) / RFU MYO3A (11730013_a_at) / Fold change /veh MYO3A (11730013_a_at) / RFU EBF3 (11725865_a_at) / Fold change /veh EBF3 (11725865_a_at) / RFU CAMK2N1 (11719241_x_at) / Fold change /veh CAMK2N1 (11719241_x_at) / RFU C5orf56 (11738088_a_at) / Fold change /veh C5orf56 (11738088_a_at) / RFU OLFML3 (11715873_a_at) / Fold change /veh OLFML3 (11715873_a_at) / RFU LOC100653217 /// NTM (11731650_a_at) / Fold change /veh LOC100653217 /// NTM (11731650_a_at) / RFU MAPK11 (11762145_a_at) / Fold change /veh MAPK11 (11762145_a_at) / RFU FIZ1 (11724087_x_at) / Fold change /veh FIZ1 (11724087_x_at) / RFU OASL (11726364_x_at) / Fold change /veh OASL (11726364_x_at) / RFU SOX15 (11748057_x_at) / Fold change /veh SOX15 (11748057_x_at) / RFU CD79A (11719716_a_at) / Fold change /veh CD79A (11719716_a_at) / RFU HIST1H1D (11736915_at) / Fold change /veh HIST1H1D (11736915_at) / RFU CASKIN2 (11723855_a_at) / Fold change /veh CASKIN2 (11723855_a_at) / RFU LOC730098 (11760151_x_at) / Fold change /veh LOC730098 (11760151_x_at) / RFU OR4N2 (11742367_at) / Fold change /veh OR4N2 (11742367_at) / RFU PRRT2 (11749266_a_at) / Fold change /veh PRRT2 (11749266_a_at) / RFU SNX32 (11753110_a_at) / Fold change /veh SNX32 (11753110_a_at) / RFU CDHR5 (11726645_a_at) / Fold change /veh CDHR5 (11726645_a_at) / RFU RCAN1 (11760418_a_at) / Fold change /veh RCAN1 (11760418_a_at) / RFU FAM167A (11723789_a_at) / Fold change /veh FAM167A (11723789_a_at) / RFU FAM26E (11764081_at) / Fold change /veh FAM26E (11764081_at) / RFU ISYNA1 (11749810_s_at) / Fold change /veh ISYNA1 (11749810_s_at) / RFU ACY1 (11761880_at) / Fold change /veh ACY1 (11761880_at) / RFU 11764098_at / Fold change /veh 11764098_at / RFU SAMD14 (11745864_x_at) / Fold change /veh SAMD14 (11745864_x_at) / RFU NPB (11741838_a_at) / Fold change /veh NPB (11741838_a_at) / RFU TMPRSS6 (11731388_a_at) / Fold change /veh TMPRSS6 (11731388_a_at) / RFU KRTAP10-2 (11738614_at) / Fold change /veh KRTAP10-2 (11738614_at) / RFU ARHGAP8 /// PRR5-ARHGAP8 (11727945_x_at) / Fold change /veh ARHGAP8 /// PRR5-ARHGAP8 (11727945_x_at) / RFU KRTAP5-7 /// NADSYN1 (11734609_at) / Fold change /veh KRTAP5-7 /// NADSYN1 (11734609_at) / RFU RASL12 (11751679_a_at) / Fold change /veh RASL12 (11751679_a_at) / RFU CDKN2B (11736163_a_at) / Fold change /veh CDKN2B (11736163_a_at) / RFU PRF1 (11729649_at) / Fold change /veh PRF1 (11729649_at) / RFU, ZNF638 /// ZNF638-IT1 / Fold change vs veh, ZNF638 /// ZNF638-IT1 / RFU, PANK3 / Fold change vs veh, PANK3 / RFU, SH3YL1 / Fold change vs veh, SH3YL1 / RFU, ZEB2 / Fold change vs veh, ZEB2 / RFU, NRIP1 / Fold change vs veh, NRIP1 / RFU, PTTG1IP / Fold change vs veh, PTTG1IP / RFU, CAPN2 / Fold change vs veh, CAPN2 / RFU, MED14 / Fold change vs veh, MED14 / RFU, SNORA58 / Fold change vs veh, SNORA58 / RFU, C1orf63 / Fold change vs veh, C1orf63 / RFU, LRRFIP1 / Fold change vs veh, LRRFIP1 / RFU, NDUFAF7 / Fold change vs veh, NDUFAF7 / RFU, SLC12A2 / Fold change vs veh, SLC12A2 / RFU, IBTK / Fold change vs veh, IBTK / RFU, ESF1 / Fold change vs veh, ESF1 / Fold change vs veh, TMEM50B / RFU, TAOK1 / Fold change vs veh, TAOK1 / RFU, ACBD3 / Fold change vs veh, ACBD3 / RFU, TMA16 / Fold change vs veh, TMA16 / RFU, RWDD3 / Fold change vs veh, RWDD3 / RFU, BCAT1 / Fold change vs veh, BCAT1 / RFU, EDEM3 / Fold change vs veh, EDEM3 / RFU, TMEM33 / Fold change vs veh, TMEM33 / RFU, WDR75 / Fold change vs veh, WDR75 / RFU, AHCTF1 / Fold change vs veh, AHCTF1 / RFU, TFRC / Fold change vs veh, TFRC / RFU, ZDHHC17 / Fold change vs veh, ZDHHC17 / RFU, NOM1 / Fold change vs veh, NOM1 / RFU, ARL8B / Fold change vs veh, ARL8B / RFU, ZBTB11 / Fold change vs veh, ZBTB11 / RFU, TAMM41 / Fold change vs veh, TAMM41 / RFU, KIAA1704 /// LOC100996395 / Fold change vs veh, KIAA1704 /// LOC100996395 / RFU, ING1 / Fold change vs veh, ING1 / RFU, TRMT61B / Fold change vs veh, TRMT61B / RFU, FUBP3 / Fold change vs veh, FUBP3 / RFU, TP53 / Fold change vs veh, TP53 / RFU, TNKS2 / Fold change vs veh, TNKS2 / RFU, ZFP14 / Fold change vs veh, ZFP14 / RFU, ACTR2 / Fold change vs veh, ACTR2 / RFU, PPP3R1 / Fold change vs veh, PPP3R1 / RFU, PIK3R1 / Fold change vs veh, PIK3R1 / RFU, HNRNPA1 / Fold change vs veh, HNRNPA1 / RFU, RNF170 / Fold change vs veh, RNF170 / RFU, ZNF28 / Fold change vs veh, ZNF28 / RFU, RNGTT / Fold change vs veh, RNGTT / RFU, OGT / Fold change vs veh, OGT / RFU, BRD1 / Fold change vs veh, BRD1 / RFU, MARS / Fold change vs veh, MARS / RFU, ZNF655 / Fold change vs veh, ZNF655 / RFU, FAHD1 / Fold change vs veh, FAHD1 / RFU, BDP1 / Fold change vs veh, BDP1 / RFU, LRRCC1 / Fold change vs veh, LRRCC1 / RFU, ARID1A / Fold change vs veh, ARID1A / RFU, ZNF146 / Fold change vs veh, ZNF146 / RFU, ZNF330 / Fold change vs veh, ZNF330 / RFU, GPN3 / Fold change vs veh, GPN3 / RFU, C9orf123 / Fold change vs veh, C9orf123 / RFU, N4BP2L2 / Fold change vs veh, N4BP2L2 / RFU, ARFIP1 / Fold change vs veh, ARFIP1 / RFU, FAM179B / Fold change vs veh, FAM179B / RFU, BCL10 / Fold change vs veh, BCL10 / RFU, UHRF1BP1L / Fold change vs veh, UHRF1BP1L / RFU, BET1 / Fold change vs veh, BET1 / RFU, CNOT2 / Fold change vs veh, CNOT2 / RFU, ZNF268 / Fold change vs veh, ZNF268 / Fold change vs veh, ZNF507 / RFU, DGCR2 / Fold change vs veh, DGCR2 / RFU, WDSUB1 / Fold change vs veh, WDSUB1 / Fold change vs veh, HSP90B1 /// MIR3652 / RFU, ADSS / Fold change vs veh, ADSS / RFU, GK / Fold change vs veh, GK / RFU, ZNF148 / Fold change vs veh, ZNF148 / RFU, TAF9 / Fold change vs veh, TAF9 / RFU, SLC1A5 / Fold change vs veh, SLC1A5 / RFU, SLMO2 / Fold change vs veh, SLMO2 / RFU, ABCC4 / Fold change vs veh, ABCC4 / RFU, LOC101060439 /// RAP1B / Fold change vs veh, LOC101060439 /// RAP1B / RFU, RFX7 / Fold change vs veh, RFX7 / RFU, GTPBP10 / Fold change vs veh, GTPBP10 / RFU, CNEP1R1 / Fold change vs veh, CNEP1R1 / RFU, BIVM-ERCC5 /// ERCC5 / Fold change vs veh, BIVM-ERCC5 /// ERCC5 / RFU, ILF3 / Fold change vs veh, ILF3 / RFU 11762660_at / Fold change /veh 11762660_at / RFU VCAN (11757783_s_at) / Fold change /veh VCAN (11757783_s_at) / RFU DDX43 (11728927_at) / Fold change /veh DDX43 (11728927_at) / RFU KRT8 (11758188_x_at) / Fold change /veh KRT8 (11758188_x_at) / RFU NKD1 (11759106_at) / Fold change /veh NKD1 (11759106_at) / RFU SRD5A1 (11742802_a_at) / Fold change /veh SRD5A1 (11742802_a_at) / RFU TPSAB1 /// TPSB2 (11721975_s_at) / Fold change /veh TPSAB1 /// TPSB2 (11721975_s_at) / RFU GSTM3 (11746129_a_at) / Fold change /veh GSTM3 (11746129_a_at) / RFU IL23R (11737362_x_at) / Fold change /veh IL23R (11737362_x_at) / RFU TMEM51 (11727254_a_at) / Fold change /veh TMEM51 (11727254_a_at) / RFU PIWIL2 (11732686_x_at) / Fold change /veh PIWIL2 (11732686_x_at) / RFU ORM1 (11744905_x_at) / Fold change /veh ORM1 (11744905_x_at) / RFU CCDC152 (11743942_at) / Fold change /veh CCDC152 (11743942_at) / RFU ECM1 (11717891_a_at) / Fold change /veh ECM1 (11717891_a_at) / RFU IL23R (11748794_a_at) / Fold change /veh IL23R (11748794_a_at) / RFU TNFAIP8L3 (11732012_x_at) / Fold change /veh TNFAIP8L3 (11732012_x_at) / RFU MBOAT4 (11741988_at) / Fold change /veh MBOAT4 (11741988_at) / RFU 11764193_at / Fold change /veh 11764193_at / RFU TMEM53 (11763286_at) / Fold change /veh TMEM53 (11763286_at) / RFU MAGEB2 (11727129_at) / Fold change /veh MAGEB2 (11727129_at) / RFU TMEM200A (11744735_a_at) / Fold change /veh TMEM200A (11744735_a_at) / RFU CCDC152 (11751479_a_at) / Fold change /veh CCDC152 (11751479_a_at) / RFU FAM211A (11726209_a_at) / Fold change /veh FAM211A (11726209_a_at) / RFU RGS16 (11746705_a_at) / Fold change /veh RGS16 (11746705_a_at) / RFU VCAN (11755009_s_at) / Fold change /veh VCAN (11755009_s_at) / RFU RHOB (11743442_s_at) / Fold change /veh RHOB (11743442_s_at) / RFU RGS16 (11720943_a_at) / Fold change /veh RGS16 (11720943_a_at) / RFU RGS16 (11720944_at) / Fold change /veh RGS16 (11720944_at) / RFU, VPS4B / Fold change vs veh, VPS4B / RFU, CREB1 / Fold change vs veh, CREB1 / RFU, DNAJC13 / Fold change vs veh, DNAJC13 / RFU, GNAQ / Fold change vs veh, GNAQ / RFU, CDK5R1 / Fold change vs veh, CDK5R1 / RFU, ZRANB3 / Fold change vs veh, ZRANB3 / RFU, CUL4A / Fold change vs veh, CUL4A / RFU, CCNY / Fold change vs veh, CCNY / RFU, UFL1 / Fold change vs veh, UFL1 / RFU, COG3 / Fold change vs veh, COG3 / RFU, DIAPH2 / Fold change vs veh, DIAPH2 / RFU, SKA2 / Fold change vs veh, SKA2 / RFU, AFF3 / Fold change vs veh, AFF3 / RFU, LMF1 / Fold change vs veh, LMF1 / RFU, IPO11 / Fold change vs veh, IPO11 / RFU, DFFB / Fold change vs veh, DFFB / RFU, FOXP1 / Fold change vs veh, FOXP1 / RFU, CARD8 / Fold change vs veh, CARD8 / RFU, STRN3 / Fold change vs veh, STRN3 / RFU, ADK / Fold change vs veh, ADK / RFU, RASSF2 / Fold change vs veh, RASSF2 / RFU, WIPF1 / Fold change vs veh, WIPF1 / RFU, LARP1B / Fold change vs veh, LARP1B / RFU, RASA1 / Fold change vs veh, RASA1 / RFU, RB1 / Fold change vs veh, RB1 / RFU, PPFIA1 / Fold change vs veh, PPFIA1 / RFU, MAT2A / Fold change vs veh, MAT2A / RFU, CCT5 / Fold change vs veh, CCT5 / RFU, WDR92 / Fold change vs veh, WDR92 / RFU, CUX1 / Fold change vs veh, CUX1 / RFU, TTC7A / Fold change vs veh, TTC7A / RFU, TMEM135 / Fold change vs veh, TMEM135 / RFU, DEPTOR / Fold change vs veh, DEPTOR / RFU, CPM / Fold change vs veh, CPM / RFU, DNAJB6 / Fold change vs veh, DNAJB6 / RFU, CACNA2D3 / Fold change vs veh, CACNA2D3 / RFU, DTX4 / Fold change vs veh, DTX4 / RFU, TFCP2 / Fold change vs veh, TFCP2 / RFU, GMCL1 /// GMCL1P1 / Fold change vs veh, GMCL1 /// GMCL1P1 / RFU, AEBP2 / Fold change vs veh, AEBP2 / RFU, SNHG1 /// SNORD22 /// SNORD25 /// SNORD26 /// SNORD27 /// SNORD28 /// SNORD29 /// SNORD31 / Fold change vs veh, SNHG1 /// SNORD22 /// SNORD25 /// SNORD26 /// SNORD27 /// SNORD28 /// SNORD29 /// SNORD31 / Fold change (Aza/veh), C12orf56 (ProbeSet 11735607_a_at) / Fold change (ACY-1035/veh), C12orf56 (ProbeSet 11735607_a_at) / Fold change (Aza/veh), FGFR1OP (ProbeSet 11751329_s_at) / Fold change (ACY-1035/veh), FGFR1OP (ProbeSet 11751329_s_at) / Fold change (Aza/veh), VPS36 (ProbeSet 11739960_a_at) / Fold change (ACY-1035/veh), VPS36 (ProbeSet 11739960_a_at) / RFU SYPL1 (11715823_x_at) / Fold change /veh SYPL1 (11715823_x_at) / RFU IGFBP7 (11715501_s_at) / Fold change /veh IGFBP7 (11715501_s_at) / RFU REEP3 (11722064_at) / Fold change /veh REEP3 (11722064_at) / RFU IGLL1 (11728026_x_at) / Fold change /veh IGLL1 (11728026_x_at): dose or concentration left out as unconfirmed. The note with it: ProbeSet 11732306_x_at; LIST D.

The text below walks through data of PMC5218480 (PLoS ONE, 2017).

For the compound `Nc1ncn([C@@H]2O[C@H](CO)[C@@H](O)[C@H]2O)c(=O)n1` [azacitidine], the “RFU, CREB1” value is 273.21 RFU.
